# “And” between values parts separate entries of the source, which are not always exact repeats. Identical values can stand only once. Like-named read-outs stand apart in the source and are kept apart here.
# What was measured:
# [1] = system: E. coli K12 MG1655; test: MIC testing by CLSI broth microdilution in M9-based minimal media ATCC 2511, with or without methionine; assay type: cell-based, Escherichia coli; conditions: for MIC90: Escherichia coli; for antibacterial activity against E. coli in words: E. coli K12
# Method: To explore the SAR around the right hand aryl portion of the TAT series (Table 1), compounds were evaluated for their in vitro antibacterial activity against E. coli in the M9-based minimal media ATCC 2511. […]. An MIC shift between the two medias was used to indicate that antibacterial activity of the compounds remained on target, and this was happily seen with all of the most MIC active compounds generated in this study. Within the first series of compounds in Table 1, modifications to the phenyl ring are generally well tolerated. MICs remain within 2-fold of the initial hit 1 for the fluoro- and cyano- substituted compounds 1–8. […]. Incorporating the electron-donating group -OMe and sterically bulky iodine group in both ortho and para position, 17–20, maintained activity, whereas the introduction of the strong electron-withdrawing -CF3 group, 21 and 22, led to poorer MIC activity. […] The phenyl ring isosteres—thiazoles 25 and 26—both retained good MIC activity. Adding a methyl branch to the thioacetamide linker 28 and 29 led to a striking loss of activity. Replacement of the aryl group with the aliphatic groups cyclohexyl 31, cyclopentyl 32, tert-butyl groups 33 all reduced activity.
# MICs were determined following CLSI broth microdilution susceptibility M100 guidelines. Compound solutions were prepared in DMSO and serially diluted 1:2 in 100 μL/well in 96 well round-bottom plates. E. coli K12 MG1655 was acquired from ATCC and strictly maintained in the M9-based media ATCC 2511. ATCC 2511 was also used for all further cultivation and MIC testing. Bacteria were grown from a single colony to a mid-log OD600 and frozen in 0.5 mL aliquots. These aliquots were used to directly inoculate the assay plates by diluting to an OD600 of 0.001 and plating 100 μL per well, allowing for ~10^5 CFU to be added to each well.
# [2] = system: E. coli K12; test: Whole cell accumulation in E. coli K12 (LC-MS/MS); set-up: dose or concentration left out as unconfirmed; conditions: 10 min, 37 °C; average of three biological replicates
# Method: Drug uptake in whole cell E. coli K12, was performed following a modified protocol adapted from previously published studies [17, 25, 26, 27]. […] After incubation, 800 mL of antibiotic-exposed cells were spun (3 min, 13,000× g) through 700 mL of a 9:1 mix of AR20 and high temperature silicon oils (cooled to −80°C). The supernatant of silicone oil and free compound in PBS was carefully removed from pellet. Intracellular concentration of antibiotics within the bacterial cells was then determined.
# For lysis, cells were resuspended in 200 mL of water and lysed by three freeze-thaw cycles of 3 min each in liquid nitrogen and in a 60 °C water bath. Lysed cells were pelleted and 150 mL of aqueous extract was transferred to a clean 1.5 mL microcentrifuge tube. Cell debris was resuspended in the remaining 50 mL of water and then extracted with 100 mL of methanol. Cells were again centrifuged, 100 mL of the methanol extract were removed and combined with the water supernatant. The extracts were allowed to rest at room temperature for 1 h before being centrifuged for 10 min at 20,000× g. Finally, extracts were filtered through a 0.22mm spin column to remove any remaining cellular debris.
# Samples were analyzed with a Waters Acquity M Class series UPLC system and Xevo G2 QTOF tandem MS/MS with Zspray. Using a Phenomenex Kinetex 2.6 μm XB-C18, 100 Å (300 μm × 150 mm) column with solvent A, 0.1% formic acid in water, and solvent B, 0.1% formic acid in acetonitrile, 250 nL of extract were separated. […] High-resolution spectra were calibrated by co-infusion of 2 ng/mL leucine enkephalin lockspray (Waters). Data were quantified using Waters MassLynx software where the AUC was determined by integrating the daughter peak of the parent ion. Concentrations of the unknown compounds were determined by the linear fit of the standard curve. Concentrations were normalized to the culture density, determined via titers, to 10^10 CFU and are reported as the average of three biological replicates.
# [3] = Solubility; assay type: physicochemical; conditions: pH 7.4 (Table S1); for solubility: read-out: Solubility Avg. Sol
# Method: The in vitro ADME values (solubility, mouse plasma stability, human plasma stability, mouse metabolic stability, and human metabolic stability) were determined as previously reported.
# [4] = MG1655, read-out: E. coli K12 MIC90
# [5] = No Supplement (N.S.), ATCC 2511 media, 16 h, 37 °C, read-out: E. coli K12 MIC90
# [6] = 16 h, read-out: E. coli K12 MIC90
# [7] = No Supplement (N.S.), ATCC 2511 media, 16 h, 37 °C
Molecule,"MIC90 [1, 4] [µg/mL]","MIC90 [1, 5] [µg/mL]",melting point [°C],also measured
"O=C(CSc1c[nH]nn1)Nc1ccc(F)cn1 [Compound 14, 2-[(1H-1,2,3-triazol-4-yl)sulfanyl]-N-(5-fluoropyridin-2-yl)acetamide]",12.5,3.1,151 to 153,–
N[C@H]1CCN(c2ccc(NC(=O)CSc3cnn[nH]3)cc2)C1 [Compound 50],–,> 200,–,Whole Cell Accumulation in E. coli [2]: 9.0 ± 2 μM/10^10 CFU
Cn1nnnc1SCC(=O)Nc1ccccc1 [Compound 62],–,> 200,–,antibacterial activity against E. coli in words [1]: inactive
"O=C(CSc1cnn[nH]1)NCc1ccccc1F [Compound 38, 2-[(1H-1,2,3-triazol-5-yl)sulfanyl]-N-(2-fluorobenzyl)acetamide]",–,3.1,–,–
O=C(CSc1cnn[nH]1)Nc1ccccc1 [Compound 11],6.3,1.6,–,–
CN1CCN(c2ccc(NC(=O)CSc3cnn[nH]3)cc2)CC1 [Compound 56],–,> 200,–,Whole Cell Accumulation in E. coli [2]: 4.7 ± 2 μM/10^10 CFU
"Cc1cc(NS(=O)(=O)c2ccc(N)cc2)no1 [Sulfamethoxazole, reference compound]",–,–,–,"MIC90 [1, 6]: 0.98 µg/mL"
O=C(CSc1cnn[nH]1)NCc1ccccn1 [Compound 40],> 50,12.5,–,–
"N#Cc1ccc(NC(=O)CSc2c[nH]nn2)nc1 [Compound 16, 2-[(1H-1,2,3-triazol-4-yl)sulfanyl]-N-(5-cyanopyridin-2-yl)acetamide]",6.3,3.1,118 to 119,–
"CCOC(=O)c1cnc(NC(=O)CSc2c[nH]nn2)s1 [Compound 26, Ethyl 2-{2-[(1H-1,2,3-triazol-4-yl)sulfanyl]acetamido}thiazole-5-carboxylate]",12.5,3.1,172 to 174,–
"COc1ccc(NC(=O)CSc2c[nH]nn2)cc1 [Compound 18, 2-[(1H-1,2,3-triazol-4-yl)sulfanyl]-N-(4-methoxyphenyl)acetamide]",12.5,3.1,130 to 131,–
Cn1nnnc1SCC(=O)Nc1ccccc1F [Compound 65],–,> 200,137 to 139,antibacterial activity against E. coli in words [1]: inactive
"COc1cc(Cc2cnc(N)nc2N)cc(OC)c1OC [Trimethoprim, reference compound]",–,–,–,"MIC90 [1, 6]: 0.98 µg/mL"
O=C(CSc1cnn[nH]1)NCc1ccc(C(F)(F)F)cc1 [Compound 44],–,50,133 to 135,–
O=C(CSc1c[nH]nn1)Nc1ccncc1 [Compound 10],50,12.5,187 to 188,"fold change (loss) in MIC activity relative to initial hit 1 ([1]; E. coli K12, no supplement): 8 fold"
"O=C(CSc1cnn[nH]1)NCc1ccc(F)cc1 [Compound 39, 2-[(1H-1,2,3-triazol-5-yl)sulfanyl]-N-(4-fluorobenzyl)acetamide]",50,6.3,122 to 124,–
"N#Cc1cccc(NC(=O)CSc2c[nH]nn2)c1 [Compound 8, 2-[(1H-1,2,3-triazol-4-yl)sulfanyl]-N-(3-cyanophenyl)acetamide]",12.5,3.1,158 to 159,–
"CCCSc1ccc2nc(NC(=O)OC)[nH]c2c1 [Albendazole, reference compound]",–,–,–,solubility ([3]; aqueous buffer): 5.33 µg/mL and 20.1 µM; %Soluble [3]: 20.1%
O=C(CSc1c[nH]nn1)NC1CCCCC1 [Compound 31],–,25,118 to 119,–
O=C(CSc1cnn[nH]1)NCc1ccc(OC(F)(F)F)cc1 [Compound 45],–,100,131 to 133,–
"O=C(CSc1c[nH]nn1)Nc1ccccc1I [Compound 19, 2-[(1H-1,2,3-triazol-4-yl)sulfanyl]-N-(2-iodophenyl)acetamide]",–,3.1,122 to 124,–
Cn1nncc1SCC(=O)Nc1ccccc1F [Compound 70],–,> 200,–,antibacterial activity against E. coli in words [1]: inactive
O=C(CSc1c[nH]nn1)Nc1ccccc1C(F)(F)F [Compound 21],–,25,83 to 85,–
Cn1cc(SCC(=O)Nc2ccccc2)nn1 [Compound 69],–,> 200,–,antibacterial activity against E. coli in words [1]: inactive

Molecule,"MIC90 [1, 4] [µg/mL]","MIC90 [1, 5] [µg/mL]",melting point [°C],also measured
O=C(CSc1cnn[nH]1)NCc1cc(F)cc(C(F)(F)F)c1 [Compound 42],–,50,82 to 84,–
"O=C(CSc1c[nH]nn1)Nc1ccc(I)cc1 [Compound 20, 2-[(1H-1,2,3-triazol-4-yl)sulfanyl]-N-(4-iodophenyl)acetamide]",25,6.3,166 to 168,–
"O=C(CSc1c[nH]nn1)Nc1cccc(F)c1 [Compound 7, 2-[(1H-1,2,3-triazol-4-yl)sulfanyl]-N-(3-fluorophenyl)acetamide]",12.5,1.6,–,"E. coli K12 MIC90 [1, 7]: ≤ 3.1 µg/mL"
"O=C(CSc1c[nH]nn1)Nc1ncccc1F [Compound 13, 2-[(1H-1,2,3-triazol-4-yl)sulfanyl]-N-(3-fluoropyridin-2-yl)acetamide]",25,6.3,99 to 100,–
Cn1cc(SCC(=O)Nc2ccccc2F)nn1 [Compound 71],–,> 200,–,antibacterial activity against E. coli in words [1]: inactive
O=C(NCCSc1cnn[nH]1)c1ccccc1F [Compound 58],–,12.5,–,antibacterial activity against E. coli in words [1]: moderate activity; Whole Cell Accumulation in E. coli [2]: 7.0 ± 1 μM/10^10 CFU
O=C(CSc1c[nH]nn1)Nc1ncccn1 [Compound 27],–,25,136 to 138,–
O=C(CSc1cnn[nH]1)NCc1cccc(F)c1 [Compound 41],–,6.3,85 to 86,–
N#Cc1cccnc1NC(=O)CSc1c[nH]nn1 [Compound 12],–,25,113 to 114,–
CCN(C(=O)CSc1c[nH]nn1)c1ccccc1F [Compound 24],25,12.5,82 to 83,–
O=C(CSc1c[nH]nn1)NC1CCCC1 [Compound 33],25,12.5,108 to 109,–
O=C(CSc1nncs1)Nc1ccccc1 [Compound 63],–,> 200,109 to 110,antibacterial activity against E. coli in words [1]: inactive
"COc1ccccc1NC(=O)CSc1c[nH]nn1 [Compound 17, 2-[(1H-1,2,3-triazol-4-yl)sulfanyl]-N-(2-methoxyphenyl)acetamide]",–,6.3,99 to 100,–
Cc1nnc(SCC(=O)Nc2ccccc2)s1 [Compound 64],–,> 200,153 to 154,antibacterial activity against E. coli in words [1]: inactive
O=C(CSc1c[nH]nn1)Nc1ccc(C(F)(F)F)cc1 [Compound 22],–,25,163 to 165,–
Cc1nnc(SCC(=O)Nc2ccccc2F)s1 [Compound 67],–,> 200,111 to 113,antibacterial activity against E. coli in words [1]: inactive
"N#Cc1ccc(NC(=O)CSc2c[nH]nn2)cn1 [Compound 15, 2-[(1H-1,2,3-triazol-4-yl)sulfanyl]-N-(6-cyanopyridin-3-yl)acetamide]",50,6.3,198 to 199,–
"3-[(1H-1,2,3-triazol-4-yl)sulfanyl]-N-(2-fluorophenyl)propenamide [Compound 30]",–,–,–,"E. coli K12 MIC90 ([1]; +20 μg/mL Methionine): 25 µg/mL; E. coli K12 MIC90 [1, 7]: 6.3 µg/mL"
CN(Cc1ccccc1F)C(=O)CSc1cnn[nH]1 [Compound 46],–,50,–,–
Cn1nncc1SCC(=O)Nc1ccccc1 [Compound 68],–,> 200,–,antibacterial activity against E. coli in words [1]: inactive
CN(C(=O)CSc1c[nH]nn1)c1ccc(F)cc1 [Compound 23],–,25,95 to 96,–
"O=C(N[C@H](CO)[C@H](O)c1ccc([N+](=O)[O-])cc1)C(Cl)Cl [Chloramphenicol, reference compound]",–,1.6,–,–
O=C(CSc1nncs1)Nc1ccccc1F [Compound 66],–,> 200,123 to 125,antibacterial activity against E. coli in words [1]: inactive
"NC(=O)N1c2ccccc2C=Cc2ccccc21 [Carbamazepine, reference compound]",–,–,–,"%Soluble [3]: 85.1%; solubility ([3]; pH 7.4, aqueous buffer): 20.1 µg/mL and 85.1 µM"
